From patent US10494368B2, “Pesticidally active tetracyclic derivatives with sulfur containing substituents” (Syngenta Participations AG, priority 2015, dated 2019)

Columns and labels:
Type in all cases: in vivo
[1] = system: Diabrotica Balteata (Corn Root Worm); assay: Diabrotica balteata on maize sprouts, spray; settings: 96 h, application rate 200 ppm, L2 larvae on maize sprouts, 4 days after infestation, read-out: effect in at least one of the two categories (mortality or growth inhibition)
Description: Maize sprouts placed onto an agar layer in 24-well microtiter plates were treated with aqueous test solutions prepared from 10′000 ppm DMSO stock solutions by spraying. After drying, the plates were infested with L2 larvae (6 to 10 per well). The samples were assessed for mortality and growth inhibition in comparison to untreated samples 4 days after infestation.
(§1) The following compounds gave an effect of at least 80% in at least one of the two categories (mortality or growth inhibition) at an application rate of 200 ppm: […]

[2] = system: Euschistus heros (Neotropical Brown Stink Bug); assay: Euschistus heros on soybean leaves, spray; settings: 120 h, application rate 200 ppm, N2 nymphs on soybean leaves, 5 days after infestation, read-out: effect in at least one of the two categories (mortality or growth inhibition)
Description: Soybean leaves on agar in 24-well microtiter plates were sprayed with aqueous test solutions prepared from 10′000 ppm DMSO stock solutions. After drying the leaves were infested with N2 nymphs. The samples were assessed for mortality and growth inhibition in comparison to untreated samples 5 days after infestation.
as §1

[3] = system: Plutella xylostella (Diamond Back Moth); assay: Plutella xylostella on artificial diet; settings: 120 h, application rate 200 ppm, L2 larvae on artificial diet, 5 days after infestation, read-out: effect in at least one of the two categories (mortality or growth inhibition)
Description: 24-well microtiter plates with artificial diet were treated with aqueous test solutions prepared from 10′000 ppm DMSO stock solutions by pipetting. After drying, the plates were infested with L2 larvae (10 to 15 per well). The samples were assessed for mortality and growth inhibition in comparison to untreated samples 5 days after infestation.
as §1

[4] = system: Spodoptera littoralis (Egyptian Cotton Leaf Worm); assay: Spodoptera littoralis on cotton leaf discs, spray; settings: foliar, 72 h, application rate 200 ppm, L1 larvae on cotton leaf discs, 3 days after infestation
Description: Cotton leaf discs were placed onto agar in 24-well microtiter plates and sprayed with aqueous test solutions prepared from 10′000 ppm DMSO stock solutions. After drying the leaf discs were infested with five L1 larvae. The samples were assessed for mortality, anti-feeding effect, and growth inhibition in comparison to untreated samples 3 days after infestation. Control of Spodoptera littoralis by a test sample is given when at least one of the categories mortality, anti-feedant effect, and growth inhibition is higher than the untreated sample.

[5] = system: Spodoptera littoralis (Egyptian Cotton Leaf Worm); assay: Spodoptera littoralis, uptake by lettuce roots from agar; settings: 144 h, test rate 12.5 ppm, compound absorbed by lettuce roots, 6 days after infestation, read-out: effect in at least one of the three categories (mortality, anti-feeding, or growth inhibition)
From the text: Test compounds were applied by pipette from 10′000 ppm DMSO stock solutions into 24-well plates and mixed with agar. Lettuce seeds were placed onto the agar and the multi well plate was closed by another plate which contained also agar. After 7 days the compound was absorbed by the roots and the lettuce grew into the lid plate. The lettuce leaves were then cut off into the lid plate. Spodoptera eggs were pipetted through a plastic stencil onto a humid gel blotting paper and the lid plate was closed with it. The samples were assessed for mortality, anti-feedant effect and growth inhibition in comparison to untreated samples 6 days after infestation.
The following compounds gave an effect of at least 80% in at least one of the three categories (mortality, anti-feeding, or growth inhibition) at a test rate of 12.5 ppm: A3, A4, A5, A6, A8, A10, B3, B4, B5 and C2.

[6] = system: Tetranychus urticae (Two-Spotted Spider Mite); assay: Tetranychus urticae feeding/contact activity on bean leaf discs; settings: foliar, 192 h
Description: Feeding/contact activity Bean leaf discs on agar in 24-well microtiter plates were sprayed with aqueous test solutions prepared from 10′000 ppm DMSO stock solutions. After drying the leaf discs were infested with a mite population of mixed ages. The samples were assessed for mortality on mixed population (mobile stages) 8 days after infestation.

[7] = system: Aedes aegypti (Yellow Fever Mosquito); assay: Aedes aegypti adult contact test on dried deposits; settings: application rate 200 ppm in ethanol, adult females, after 48 h and/or 24 h
Description: Test solutions, at an application rate of 200 ppm in ethanol, were applied to 12 well tissue culture plates. Once the deposits were dry, five, two to five day old adult female Aedes aegypti were added to each well, and sustained with a 10% sucrose solution in a cotton wool plug. Assessment of knockdown was made one hour after introduction, and mortality was assessed at 24 and 48 hours after introduction.
The following compounds gave at least 80% control of Aedes aegypti after 48 h and/or 24 h: […]

[8] = system: Bemisia tabaci (Cotton White Fly); assay: Bemisia tabaci feeding/contact activity on cotton leaf discs; settings: foliar, 144 h, application rate 200 ppm, adult white flies on cotton leaf discs, 6 days after incubation
Description: Feeding/contact activity Cotton leaf discs were placed on agar in 24-well microtiter plates and sprayed with aqueous test solutions prepared from 10′000 ppm DMSO stock solutions. After drying the leaf discs were infested with adult white flies. The samples were checked for mortality 6 days after incubation.

[9] = system: Myzus persicae (Green Peach Aphid); assay: Myzus persicae feeding/contact activity on sunflower leaf discs; settings: foliar, 144 h, application rate 200 ppm, aphid population of mixed ages on sunflower leaf discs, 6 days after infestation
Description: Feeding/Contact activity Sunflower leaf discs were placed onto agar in a 24-well microtiter plate and sprayed with aqueous test solutions prepared from 10′000 ppm DMSO stock solutions. After drying, the leaf discs were infested with an aphid population of mixed ages. The samples were assessed for mortality 6 days after infestation.

[10] = system: Myzus persicae (Green Peach Aphid); assay: Myzus persicae intrinsic activity (sucrose solution, Parafilm); settings: 120 h, test rate 12 ppm, 5 days after infestation
Description: Intrinsic activity Test compounds prepared from 10′000 ppm DMSO stock solutions were applied by pipette into 24-well microtiter plates and mixed with sucrose solution. The plates were closed with a stretched Parafilm. A plastic stencil with 24 holes was placed onto the plate and infested pea seedlings were placed directly on the Parafilm. The infested plate was closed with a gel blotting paper and another plastic stencil and then turned upside down. The samples were assessed for mortality 5 days after infestation.

CCSc1c(-c2nc3cc(SC(F)(F)F)cnc3n2C)sc2cc(Br)ccc12 [Compound A3, 2-(6-bromo-3-ethylsulfanyl-benzothiophen-2-yl)-3-methyl-6-(trifluoromethylsulfanyl)imidazo[4,5-b]pyridine]
≥ 80%: percent effect (mortality or growth inhibition) at 200 ppm [1] | percent effect (mortality or growth inhibition) at 200 ppm [2] | percent effect (mortality or growth inhibition) at 200 ppm [3] | percent control (mortality, anti-feedant effect or growth inhibition) at 200 ppm [4] | percent effect (mortality, anti-feeding or growth inhibition) at 12.5 ppm [5] | mortality at 200 ppm [6] | pest or weed control at 200 ppm [7]

CCS(=O)(=O)c1c(-c2nc3cc(C(F)(F)F)cnc3n2C)sc2cc(Br)ccc12 [Compound A8, 2-(6-bromo-3-ethylsulfonyl-benzothiophen-2-yl)-3-methyl-6-(trifluoromethyl)imidazo[4,5-b]pyridine]
≥ 80%: mortality at 200 ppm [8] | percent effect (mortality or growth inhibition) at 200 ppm [1] | percent effect (mortality or growth inhibition) at 200 ppm [2] | mortality at 200 ppm [9] | percent effect (mortality or growth inhibition) at 200 ppm [3] | percent control (mortality, anti-feedant effect or growth inhibition) at 200 ppm [4] | percent effect (mortality, anti-feeding or growth inhibition) at 12.5 ppm [5] | pest or weed control at 200 ppm [7]

CCSc1c(-c2nc3cnc(C(F)(F)F)cc3n2C)sc2ccccc12 [Compound B1, 2-(3-ethylsulfanylbenzothiophen-2-yl)-1-methyl-6-(trifluoromethyl)imidazo[4,5-c]pyridine]
≥ 80%: percent effect (mortality or growth inhibition) at 200 ppm [1] | mortality at 200 ppm [9] | mortality at 12 ppm [10] | percent effect (mortality or growth inhibition) at 200 ppm [3]

CCSc1c(-c2nc3cc(C(F)(F)F)ncc3n2C)sc2cc(C(F)(F)F)ccc12 [Compound B3, 2-[3-ethylsulfanyl-6-(trifluoromethyl)benzothiophen-2-yl]-3-methyl-6-(trifluoromethyl)imidazo[4,5-c]pyridine]
≥ 80%: percent effect (mortality or growth inhibition) at 200 ppm [1] | percent effect (mortality or growth inhibition) at 200 ppm [2] | mortality at 12 ppm [10] | percent effect (mortality or growth inhibition) at 200 ppm [3] | percent control (mortality, anti-feedant effect or growth inhibition) at 200 ppm [4] | percent effect (mortality, anti-feeding or growth inhibition) at 12.5 ppm [5] | pest or weed control at 200 ppm [7]

CCS(=O)(=O)c1c(-c2nc3cc(C(F)(F)F)ncc3n2C)sc2cc(C(F)(F)F)ccc12 [Compound B4, 2-[3-ethylsulfonyl-6-(trifluoromethyl)benzothiophen-2-yl]-3-methyl-6-(trifluoromethyl) imidazo[4,5-c]pyridine]
≥ 80%: mortality at 200 ppm [8] | percent effect (mortality or growth inhibition) at 200 ppm [1] | percent effect (mortality or growth inhibition) at 200 ppm [2] | mortality at 200 ppm [9] | percent effect (mortality or growth inhibition) at 200 ppm [3] | percent control (mortality, anti-feedant effect or growth inhibition) at 200 ppm [4] | percent effect (mortality, anti-feeding or growth inhibition) at 12.5 ppm [5] | pest or weed control at 200 ppm [7]

CCS(=O)(=O)c1c(-c2nc3cc(SC(F)(F)F)ncc3n2C)sc2cc(Br)ccc12 [Compound B5, 2-(6-bromo-3-ethylsulfonyl-benzothiophen-2-yl)-3-methyl-6-(trifluoromethylsulfanyl)imidazo[4,5-c]pyridine]
≥ 80%: mortality at 200 ppm [8] | percent effect (mortality or growth inhibition) at 200 ppm [1] | percent effect (mortality or growth inhibition) at 200 ppm [2] | mortality at 200 ppm [9] | percent effect (mortality or growth inhibition) at 200 ppm [3] | percent control (mortality, anti-feedant effect or growth inhibition) at 200 ppm [4] | percent effect (mortality, anti-feeding or growth inhibition) at 12.5 ppm [5] | pest or weed control at 200 ppm [7]
